The record followed here is patent publication US12486267B2, “Imidazo[1,2-A]pyridine and [1,2,4]triazolo[1,5-A]pyridine derivatives as TLR9 inhibitors for the treatment of fibrosis” (BRISTOL-MYERS SQUIBB COMPANY, priority 2020, dated 2025).

Holding throughout (type): cell-based
One test concerns the target T1, human TLR9 (Homo sapiens, UniProt Q9NR96).
T1 sequence (Q9NR96 26-1032): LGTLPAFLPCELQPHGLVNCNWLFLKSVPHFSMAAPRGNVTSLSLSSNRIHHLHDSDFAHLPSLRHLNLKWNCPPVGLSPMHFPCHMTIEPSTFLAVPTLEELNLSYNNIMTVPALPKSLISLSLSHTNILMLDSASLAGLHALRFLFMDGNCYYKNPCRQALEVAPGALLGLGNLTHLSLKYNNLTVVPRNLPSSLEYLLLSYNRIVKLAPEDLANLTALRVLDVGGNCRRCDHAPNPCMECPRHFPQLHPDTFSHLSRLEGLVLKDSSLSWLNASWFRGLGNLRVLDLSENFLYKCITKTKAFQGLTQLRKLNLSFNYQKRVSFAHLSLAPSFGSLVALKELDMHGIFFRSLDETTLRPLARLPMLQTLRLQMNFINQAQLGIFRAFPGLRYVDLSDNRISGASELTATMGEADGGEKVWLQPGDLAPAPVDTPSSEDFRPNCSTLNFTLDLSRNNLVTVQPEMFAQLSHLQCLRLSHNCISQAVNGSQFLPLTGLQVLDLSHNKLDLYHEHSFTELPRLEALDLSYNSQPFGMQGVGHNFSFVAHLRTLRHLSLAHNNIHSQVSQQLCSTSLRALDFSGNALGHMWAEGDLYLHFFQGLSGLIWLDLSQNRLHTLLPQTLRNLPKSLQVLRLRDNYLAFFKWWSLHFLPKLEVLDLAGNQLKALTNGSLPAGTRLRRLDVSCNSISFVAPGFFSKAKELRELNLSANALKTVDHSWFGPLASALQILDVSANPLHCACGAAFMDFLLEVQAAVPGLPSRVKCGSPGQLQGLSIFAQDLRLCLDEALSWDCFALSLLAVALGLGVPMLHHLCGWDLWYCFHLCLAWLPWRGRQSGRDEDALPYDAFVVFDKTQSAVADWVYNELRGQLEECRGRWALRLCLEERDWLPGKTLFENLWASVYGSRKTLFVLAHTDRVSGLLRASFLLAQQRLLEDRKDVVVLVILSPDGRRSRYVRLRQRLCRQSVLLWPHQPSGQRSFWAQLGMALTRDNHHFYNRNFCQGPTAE
In words: TLR9 inhibition reporter assay (HEK-Blue cells, SEAP reporter). Particulars: HEK-Blue cells overexpressing human TLR9; stimulated with ODN2006 5 nM; 22 hour incubation; SEAP readout. In outline:
(§1)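 HEK-Blue cells with NF-κB/AP-1-driven SEAP pre-treated 30 min with compound (0.05 nM–50 μM), then stimulated with gardiquimod 7.5 μM (TLR7), R848 15.9 μM (TLR8) or ODN2006 5 nM (TLR9). SEAP detected after 22 h at 37 °C; percent inhibition relative to agonist-plus-DMSO and known-inhibitor wells.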

In another test the target is T2, human TLR7 (Homo sapiens, UniProt Q9NYK1).
T2 sequence (Q9NYK1 27-1049): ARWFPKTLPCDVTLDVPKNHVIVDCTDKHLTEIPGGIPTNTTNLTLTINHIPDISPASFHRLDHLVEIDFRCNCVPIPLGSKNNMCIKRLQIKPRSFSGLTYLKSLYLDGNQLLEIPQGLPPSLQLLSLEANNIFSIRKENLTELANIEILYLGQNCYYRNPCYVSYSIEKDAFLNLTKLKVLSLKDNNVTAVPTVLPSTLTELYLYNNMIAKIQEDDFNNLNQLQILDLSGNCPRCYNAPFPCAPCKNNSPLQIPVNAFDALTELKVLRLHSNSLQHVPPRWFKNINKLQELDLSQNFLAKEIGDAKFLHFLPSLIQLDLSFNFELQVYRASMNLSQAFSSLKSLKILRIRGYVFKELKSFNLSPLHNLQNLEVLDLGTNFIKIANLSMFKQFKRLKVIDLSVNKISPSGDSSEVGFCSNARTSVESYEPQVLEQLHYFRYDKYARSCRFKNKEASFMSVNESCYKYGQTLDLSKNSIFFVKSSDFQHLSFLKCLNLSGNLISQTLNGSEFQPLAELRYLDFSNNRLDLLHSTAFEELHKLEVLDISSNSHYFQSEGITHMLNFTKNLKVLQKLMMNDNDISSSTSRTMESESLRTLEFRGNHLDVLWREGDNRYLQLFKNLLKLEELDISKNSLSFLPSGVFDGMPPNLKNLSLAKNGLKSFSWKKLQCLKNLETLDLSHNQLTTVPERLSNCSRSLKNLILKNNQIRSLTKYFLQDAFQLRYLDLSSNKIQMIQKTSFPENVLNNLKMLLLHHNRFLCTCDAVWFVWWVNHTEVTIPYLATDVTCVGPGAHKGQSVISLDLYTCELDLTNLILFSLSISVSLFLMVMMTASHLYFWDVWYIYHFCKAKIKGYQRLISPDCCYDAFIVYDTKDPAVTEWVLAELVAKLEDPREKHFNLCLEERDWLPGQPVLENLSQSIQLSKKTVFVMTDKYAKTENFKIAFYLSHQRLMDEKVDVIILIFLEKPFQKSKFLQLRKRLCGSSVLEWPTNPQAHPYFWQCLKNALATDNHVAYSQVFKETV
In words: TLR7 inhibition reporter assay (HEK-Blue cells, SEAP reporter). The note with it: HEK-Blue cells overexpressing human TLR7; stimulated with gardiquimod 7.5 μM; 22 hour incubation; SEAP readout. In a few lines: as §1
Background: In a reporter assay the amount or activity of a reporter protein is the signal.

A further test has as its target T3, human TLR8 (Homo sapiens, UniProt Q9NR97).
T3 sequence (Q9NR97 27-1041): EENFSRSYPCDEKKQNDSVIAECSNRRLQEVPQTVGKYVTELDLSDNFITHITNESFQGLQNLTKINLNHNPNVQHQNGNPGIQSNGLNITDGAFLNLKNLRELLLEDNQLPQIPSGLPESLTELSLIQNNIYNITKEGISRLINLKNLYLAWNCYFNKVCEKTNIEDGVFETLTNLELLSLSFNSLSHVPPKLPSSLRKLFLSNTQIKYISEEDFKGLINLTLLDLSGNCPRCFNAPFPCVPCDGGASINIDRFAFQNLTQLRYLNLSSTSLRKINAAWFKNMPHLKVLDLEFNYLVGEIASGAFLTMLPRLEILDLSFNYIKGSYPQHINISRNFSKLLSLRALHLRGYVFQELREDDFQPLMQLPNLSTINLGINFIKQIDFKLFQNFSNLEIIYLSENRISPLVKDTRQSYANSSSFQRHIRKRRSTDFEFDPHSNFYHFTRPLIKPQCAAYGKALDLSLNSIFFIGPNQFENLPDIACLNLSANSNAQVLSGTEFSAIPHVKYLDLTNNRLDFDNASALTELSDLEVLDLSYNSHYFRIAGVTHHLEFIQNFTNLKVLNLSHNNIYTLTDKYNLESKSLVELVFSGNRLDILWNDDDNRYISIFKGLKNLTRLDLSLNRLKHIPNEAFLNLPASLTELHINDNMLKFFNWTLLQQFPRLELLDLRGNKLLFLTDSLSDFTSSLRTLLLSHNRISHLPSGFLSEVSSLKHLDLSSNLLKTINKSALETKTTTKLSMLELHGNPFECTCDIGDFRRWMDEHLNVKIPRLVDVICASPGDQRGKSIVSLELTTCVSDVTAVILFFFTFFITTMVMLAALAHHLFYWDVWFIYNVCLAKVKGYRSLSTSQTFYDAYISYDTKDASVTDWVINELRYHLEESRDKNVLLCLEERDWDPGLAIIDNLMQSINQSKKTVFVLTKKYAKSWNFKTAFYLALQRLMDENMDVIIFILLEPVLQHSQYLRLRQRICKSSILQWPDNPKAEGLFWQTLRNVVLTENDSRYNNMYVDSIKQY
In words: TLR8 inhibition reporter assay (HEK-Blue cells, SEAP reporter). Particulars: HEK-Blue cells overexpressing human TLR8; stimulated with R848 15.9 μM; 22 hour incubation; SEAP readout. In outline:
as §1

One may read the IC50 as the concentration that gives 50% inhibition. A high value points to lower potency. Regarding `CS(=O)(=O)c1ccc(-c2cn3cc(C4CCN(C5CCN(C6CC6)CC5)CC4)cc(F)c3n2)cc1` [Example 108, 6-(1′-cyclopropyl-[1,4′-bipiperidin]-4-yl)-8-fluoro-2-(4-(methylsulfonyl)phenyl) imidazo[1,2-a]pyridine], the IC50 is 313 nM against human TLR9, 29500 nM on human TLR7 and over 50000 nM on human TLR8.
For the molecule `CS(=O)(=O)c1ccc(-c2cn3cc(C4CCN(C5CCN(CC6CC6)CC5)CC4)cc(F)c3n2)cc1` [Example 109, 6-(1′-(cyclopropylmethyl)-[1,4′-bipiperidin]-4-yl)-8-fluoro-2-(4-(methylsulfonyl)phenyl)imidazo[1,2-a]pyridine], the IC50 was 4.3 nM on human TLR9, 1300 nM against human TLR7 and over 50000 nM on human TLR8.
Take `CS(=O)(=O)c1ccc(-c2cn3cc(C4CCN(C5CCN(C6CCC6)CC5)CC4)cc(F)c3n2)cc1` [Example 110, 6-(1′-cyclobutyl-[1,4′-bipiperidin]-4-yl)-8-fluoro-2-(4-(methylsulfonyl)phenyl) imidazo[1,2-a]pyridine]: the IC50 at human TLR9 is 4.6 nM; against human TLR7 it was 2400 nM; at human TLR8, over 50000 nM.
The matching figures for `CS(=O)(=O)c1ccc(-c2cn3cc(C4CCN(C5CCN(C6COC6)CC5)CC4)cc(F)c3n2)cc1` [Example 111, 8-fluoro-2-(4-(methylsulfonyl)phenyl)-6-(1′-(oxetan-3-yl)-[1,4′-bipiperidin]-4-yl)imidazo[1,2-a]pyridine]: 235 nM, 13000 nM and over 50000 nM.
For the molecule `CS(=O)(=O)c1ccc(-c2cn3cc(C4CCN(C5CCN(C6CCOCC6)CC5)CC4)cc(F)c3n2)cc1` [Example 112, 8-fluoro-2-(4-(methylsulfonyl)phenyl)-6-(1′-(tetrahydro-2H-pyran-4-yl)-[1,4′-bipiperidin]-4-yl)imidazo[1,2-a]pyridine], the figures for the IC50 at human TLR9, against human TLR7 and against human TLR8 were 98 nM, 4500 nM and over 50000 nM, respectively.
Regarding `CC(C)CN1CCC(N2CCC(c3cn4cc(-c5ccc(S(C)(=O)=O)cc5)nc4cc3F)CC2)CC1` [Example 123, 7-fluoro-6-(1′-isobutyl-[1,4′-bipiperidin]-4-yl)-2-(4-(methylsulfonyl)phenyl) imidazo[1,2-a]pyridine], the results for the IC50 at human TLR9, on human TLR7 and against human TLR8 were 496 nM, over 50000 nM and over 50000 nM, respectively.
`CC(C)CN1CCC(N2CCC(c3ccc4nc(-c5ccc(S(C)(=O)=O)cc5)cn4c3F)CC2)CC1` [Example 131, 5-fluoro-6-(1′-isobutyl-[1,4′-bipiperidin]-4-yl)-2-(4-(methylsulfonyl)phenyl) imidazo[1,2-a]pyridine]: the IC50 on human TLR9 came out at 58 nM; against human TLR7, 18100 nM; against human TLR8 it was 16700 nM.
In the case of `CC(C)N1CCC(N2CCC(c3ccn4cc(-c5ccc(S(C)(=O)=O)cc5)nc4c3F)CC2)CC1` [Example 132, 8-fluoro-7-(1′-isopropyl-[1,4′-bipiperidin]-4-yl)-2-(4-(methylsulfonyl)phenyl) imidazo[1,2-a]pyridine], the IC50 against human TLR9 is 300 nM; against human TLR7 it was 4000 nM; against human TLR8 it was over 50000 nM.
With `CS(=O)(=O)c1ccc(-c2cn3ccc(C4CCN(C5CCN(C6CCOCC6)CC5)CC4)c(F)c3n2)cc1` [Example 133, 8-fluoro-2-(4-(methylsulfonyl)phenyl)-7-(1′-(tetrahydro-2H-pyran-4-yl)-[1,4′-bipiperidin]-4-yl)imidazo[1,2-a]pyridine], the IC50 against human TLR9 is 6 nM; against human TLR7 it was 1900 nM; on human TLR8, over 50000 nM.
Turning to `COc1ccc(-c2nc3n(n2)CC(c2ccc(N4CC5CCC(C4)N5C(C)C)cc2)CC3C)cc1OC` (stereo not drawn) [Example 152, 2-(3,4-dimethoxyphenyl)-6-(4-(8-isopropyl-3,8-diazabicyclo[3.2.1]octan-3-yl)phenyl)-8-methyl-5,6,7,8-tetrahydro-[1,2,4]triazolo[1,5-a]pyridine], the IC50 was 357 nM on human TLR9, over 50000 nM at human TLR7 and over 50000 nM against human TLR8.
Take `Cc1cc(C2CC3CCC(C2)N3C2CCN(C(C)C)CC2)cn2nc(-c3ccc(S(C)(=O)=O)cc3)nc12` (stereo not drawn) [Example 160, 6-(8-(1-isopropylpiperidin-4-yl)-8-azabicyclo[3.2.1]octan-3-yl)-8-methyl-2-(4-(methylsulfonyl)phenyl)-[1,2,4]triazolo[1,5-a]pyridine]: the 50% inhibitory concentration (IC50) at human TLR9 is 44 nM; on human TLR7, 6900 nM; at human TLR8 it was over 50000 nM.
For `Cc1cc(C2CCN(C3CCN(C(C)C)CC3)CC2)cn2nc(-c3ccc(S(C)(=O)=O)cc3)nc12` [Example 162, 6-(1′-isopropyl-[1,4′-bipiperidin]-4-yl)-8-methyl-2-(4-(methylsulfonyl)phenyl)-[1,2,4]triazolo[1,5-a]pyridine], the values for the IC50 against human TLR9, against human TLR7 and at human TLR8 were 79 nM, 6900 nM and over 50000 nM, respectively.
